Source: patent US20070093469A1, “Substituted azetidine compounds as cyclooxygenase-1-cyclooxygenase-2 inhibitors, and their preparation and use as medicaments” (LABORATORIOS DEL DR. ESTEVE S.A, priority 2004, published 2007)

Key:
[1] = target: T1, Cox-1 (Homo sapiens, UniProt P23219); test: Cox-1 activity in human whole blood (TXB2); assay type: cell-based; conditions: read-out: hWB inhibition COX-1 IC50
T1 construct: from tissue; host or cells: fresh human whole blood
Protocol: II. Determination of Cox-1- and Cox-2-Activity in Human Whole Blood
The Cox-1- and Cox-2-activity in human whole blood is determined according to a modification of the method described in the publication of C. Brideau et al., “A human whole blood assay for clinical evaluation of biochemical efficacy of cyclooxygenase inhibitors”, Inflamm Res 1996; 45: 68-74. The respective part of the description is hereby incorporated by reference and forms part of the present disclosure.
For Cox-1 activity determination, fresh human blood is distributed in a volume of 0.5 ml to silicone Eppendorf tubes, into which 2 μl of the compound to be tested or dimethylsulfoxide (DMSO) at a final concentration of 0.4% (volume/volume). The tubes are inverted for homogenization and incubated for 1 hour at 37° C. under slight stirring. Afterwards they are centrifuged for 15 min at 10500 g and 100 μl of serum is collected. Proteins are precipitated by the addition of 400 μl of methanol to each tube, tubes were centrifuged for 10 minutes at 5000 g and 300 μl of supernatant is aspirated and then dried under nitrogen atmosphere.
Tromboxane B2 (TXB2) concentration is quantified using an assay kit (Caymann Chemical, Ann Arbor, Mich., U.S.A., Catalogue number 519031) after reconstitution into 300 μl assay buffer supplied in the assay kit.

[2] = test system: rats; test: Analgesia test in rats (carrageenan, thermal stimulus); assay type: in vivo; conditions: Rattus norvegicus, oral route, 2 hours after administration, read-out: ED50 analgesic activity
Protocol: III: Analgesia Test in Rats
The inventive compounds are tested for analgesic activity as described above is carried out as described in the publication of K. Hargreaves et al., Pain, 32, 77-88, (1988). The respective part of the description is hereby incorporated by reference and forms part of the disclosure.
The rats are transferred to the experimentation laboratory, where they remain in groups of 5, in makrolon cages with a barred floor to avoid coprophagy. At the beginning of the experiment, water and food were removed, and animals were adequately weighed and marked.
Each rat receives via subplantar injection 0.1 ml of sterile saline solution into the left hind paw, followed by 0.1 ml of a 2% (weight/volume) carrageenan suspension in sterile saline solution into the right hind paw.
Two hours after the subplantar injections of carrageenan and vehicle, each rat receives by oral route the compounds to be tested, suspended in 5% (weight/volume) gum arabic, administered at 10 ml per kg of body weight. Two hours after the administration of the compounds to be tested, the values for analgesic activity are determined. To this purpose, the rats are transferred to the methacrylate chambers of an analgesimeter provided with a glass floor. Once the acclimatisation period in the chambers is over (i.e. after 5 minutes) an infra-red beam lamp capable of producing a thermal stimulus, is placed below the rat's paws.
The thermal stimulus, previously calibrated at 10 Amperes, is applied to each of the hind paws with at least 1 minute intervals. The response of the rats to pain consists of raising the paw, thus avoiding contact with the floor. […] The rats are tested once only to avoid possible learning behaviour.

[3] = target: T2, Cox-2 enzyme (Ovis aries, UniProt P79208); test: Cox-1/Cox-2 enzyme assay (Cox-2); assay type: biochemical; conditions: for IC50: enzyme assay
T2 construct: purchased Cayman Chemical 60120
T2 sequence (P79208 17-603): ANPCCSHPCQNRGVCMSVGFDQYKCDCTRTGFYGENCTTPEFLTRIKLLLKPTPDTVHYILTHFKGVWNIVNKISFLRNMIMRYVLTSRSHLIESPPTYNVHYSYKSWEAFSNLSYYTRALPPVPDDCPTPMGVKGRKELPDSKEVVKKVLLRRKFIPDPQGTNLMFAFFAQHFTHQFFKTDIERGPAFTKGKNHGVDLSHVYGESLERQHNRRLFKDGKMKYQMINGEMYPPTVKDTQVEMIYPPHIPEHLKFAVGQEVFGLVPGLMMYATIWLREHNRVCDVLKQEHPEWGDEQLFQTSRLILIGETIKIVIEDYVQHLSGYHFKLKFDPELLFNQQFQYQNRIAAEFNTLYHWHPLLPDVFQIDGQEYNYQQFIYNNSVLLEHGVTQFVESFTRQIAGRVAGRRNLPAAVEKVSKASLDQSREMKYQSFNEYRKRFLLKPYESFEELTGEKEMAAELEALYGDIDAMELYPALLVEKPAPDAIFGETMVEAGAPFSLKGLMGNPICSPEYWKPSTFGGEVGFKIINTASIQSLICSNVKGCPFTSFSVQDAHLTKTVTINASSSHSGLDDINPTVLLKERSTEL
Protocol: I. Cox-1/Cox-2 Enzyme Assay:
The Cox-1/Cox-2 enzyme assay for the inventive azetidine compounds is carried out according to the following description:
Immediately after the addition of the substrate, the slope corresponding to the optical density increase at 480 nm is recorded for 1 minute. The reaction is monitored with a Hewlett-Packard 8452A spectrophotometer.

[4] = test system: PGE2 production in rat inflammatory exudate; test: PGE2 production in rat inflammatory exudate; assay type: in vivo; conditions: rats, oral route, carrageenan sponge implant, read-out: PGE2 Inflam. exudade ED50
Protocol: VI: PGE2 Production in Rat Inflammatory Exudate and Gastric Mucosa
The PGE2 production in rat inflammatory exudate and gastric mucosa is carried out as described in the publication of O Tofanetti et al., “Effect of nimesulide on cyclo-oxygenase activity in rat gastric mucosa and inflammatory exudate”, Med Sci Res 17, 745-746 (1989). The respective part of the description is hereby incorporated by reference and forms part of the present disclosure.
For this text 6 male wistar rats (Interfauna-St Feliú de Codines, Barcelona) of approximately 200 g (each approximately 6 weeks of age) are used. The compounds to be tested are administered via oral route in gum Arabic at 5% (weight/volume) at a rate of 10 ml/kg.
One hour after administration of the compounds and under halothane anaesthesia, each rat is implanted subcutaneously in the interescapular area a 40×15×5 mm polyester sponge, soaked in a 0.5% suspension of carrageenan. Rats are sacrificed 6 hours after the implant, the sponges are removed and squeezed. The exudates are collected and centrifuged at 6000×G for 15 minutes.
The rats's stomachs are removed and the gastric mucosa is detached from the underlying layers and by means of a 10 mm diameter die, mucosa samples from an area between the gastric corpus and pyloric antrum are taken. The mucosal PGE2 is extracted. PGE2 concentrations from the inflammatory exudates and the gastric mucosa are determined by means of inmmunoassay reagents of Cayman Chemical kit, Ann Arbor, Mich., U.S.A. (Catalogue number: 514010) according to the manufacturer's instructions.

T1 sequence (P23219 24-599): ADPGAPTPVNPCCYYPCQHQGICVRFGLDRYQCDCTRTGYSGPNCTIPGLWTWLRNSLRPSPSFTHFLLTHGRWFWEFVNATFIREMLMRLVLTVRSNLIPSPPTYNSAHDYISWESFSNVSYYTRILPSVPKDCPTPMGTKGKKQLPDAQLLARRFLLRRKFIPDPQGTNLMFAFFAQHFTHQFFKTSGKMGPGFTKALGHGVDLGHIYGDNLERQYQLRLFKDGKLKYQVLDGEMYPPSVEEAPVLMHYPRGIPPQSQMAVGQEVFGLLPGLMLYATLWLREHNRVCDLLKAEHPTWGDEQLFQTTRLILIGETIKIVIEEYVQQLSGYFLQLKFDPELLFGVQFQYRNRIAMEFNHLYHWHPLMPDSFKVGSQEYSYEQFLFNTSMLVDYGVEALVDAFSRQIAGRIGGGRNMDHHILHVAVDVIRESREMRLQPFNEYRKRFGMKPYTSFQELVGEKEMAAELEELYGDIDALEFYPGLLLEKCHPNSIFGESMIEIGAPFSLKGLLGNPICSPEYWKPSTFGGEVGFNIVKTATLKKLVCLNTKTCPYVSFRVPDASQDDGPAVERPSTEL

With `CC1C(O)CN1C(=O)c1cc(C(C)(C)C)c(O)c(C(C)(C)C)c1` (stereo not shown) [Example 4, (3,5-di-tert-butyl-4-hydroxy-phenyl)-(3-hydroxy-2-methyl-azetidin-1-yl)-methanone] the IC50 [1] was 500 nM, the ED50 [2] was 0.7 mg/kg and the IC50 [3] was 3750 nM. It also gave an ED50 [4] of 5.8 mg/kg.
For `CC(C)(C)c1cc(C(=O)N2CC(O)C2)cc2c1OCC2(C)C` [Example 14, (7-tert-butyl-3,3-dimethyl-2,3-dihydro-benzofuran-5-yl)-(3-hydroxy-azetidin-1-yl)-methanone], the IC50 [1] was 50 nM, the ED50 [2] was 3 mg/kg and the IC50 [3] was 600 nM. The ED50 [4] was 1.8 mg/kg.
`CC(C)(C)c1cc(C(=O)N2CC(O)C2)cc(C(C)(C)C)c1` [Example 2, (3,5-di-tert-butyl-phenyly)-(3-hydroxy-azetidin-1-yl)-methanone] gave an IC50 [1] of 500 nM, an ED50 [2] of 1.65 mg/kg and an IC50 [3] of 1800 nM. It also gave an inhibition at 50 µM ([3]; read-out: % inhibition 5 × 10^−5 M COX-2) of 78% and an ED50 [4] of 5.9 mg/kg.
